Assay results: ChEMBL document CHEMBL3882724 (2013)

Assays:
[1] = target: T1, Steroid 17-alpha-hydroxylase/17,20 lyase (Homo sapiens, UniProt P05093); test: Inhibition of CYP17 in human testicular microsomes using 17alpha-hydroxypregnenolone as substrate assessed as decrease in DHEA levels at 10 nM after 90 mins by ELISA relative to control; set-up: species or system Testis; settings: 1.5 h
T1 sequence (P05093 whole entry): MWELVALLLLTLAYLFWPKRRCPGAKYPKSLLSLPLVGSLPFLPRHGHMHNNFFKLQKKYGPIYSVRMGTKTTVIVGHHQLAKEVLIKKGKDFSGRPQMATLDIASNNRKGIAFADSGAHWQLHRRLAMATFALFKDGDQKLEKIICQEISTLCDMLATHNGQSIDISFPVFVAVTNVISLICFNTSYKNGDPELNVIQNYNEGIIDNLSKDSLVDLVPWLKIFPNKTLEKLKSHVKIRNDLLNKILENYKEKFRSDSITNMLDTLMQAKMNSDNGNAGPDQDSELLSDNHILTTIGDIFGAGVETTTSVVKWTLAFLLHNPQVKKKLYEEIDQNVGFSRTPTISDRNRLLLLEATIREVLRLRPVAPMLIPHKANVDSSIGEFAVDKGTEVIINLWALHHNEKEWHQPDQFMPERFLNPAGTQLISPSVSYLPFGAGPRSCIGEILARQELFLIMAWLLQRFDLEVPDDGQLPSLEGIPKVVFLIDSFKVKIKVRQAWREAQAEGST

[2] = target: T1, Steroid 17-alpha-hydroxylase/17,20 lyase; test: Inhibition of CYP17 in human testicular microsomes using 17alpha-hydroxypregnenolone as substrate assessed as decrease in DHEA levels after 90 mins by ELISA; set-up: species or system Testis
[3] = Half life in rat liver microsomes at 1 uM by LC-MS/MS analysis
[4] = Half life in human liver microsomes at 1 uM by LC-MS/MS analysis
[5] = target: T2, CYP21 (steroid 21-hydroxylase) (Homo sapiens, UniProt P08686); test: Inhibition of human CYP21 transfected in HEK293 cells assessed as decrease in conversion of progesterone to 11-deoxycorticosterone preincubated for 5 hrs followed by progesterone addition measured after 20 hrs by ELISA; assay type: cell-based; set-up: concentration or dose not given beside the values; settings: HEK293 cells transfected with human CYP21, probe progesterone
T2 sequence (P08686 whole entry): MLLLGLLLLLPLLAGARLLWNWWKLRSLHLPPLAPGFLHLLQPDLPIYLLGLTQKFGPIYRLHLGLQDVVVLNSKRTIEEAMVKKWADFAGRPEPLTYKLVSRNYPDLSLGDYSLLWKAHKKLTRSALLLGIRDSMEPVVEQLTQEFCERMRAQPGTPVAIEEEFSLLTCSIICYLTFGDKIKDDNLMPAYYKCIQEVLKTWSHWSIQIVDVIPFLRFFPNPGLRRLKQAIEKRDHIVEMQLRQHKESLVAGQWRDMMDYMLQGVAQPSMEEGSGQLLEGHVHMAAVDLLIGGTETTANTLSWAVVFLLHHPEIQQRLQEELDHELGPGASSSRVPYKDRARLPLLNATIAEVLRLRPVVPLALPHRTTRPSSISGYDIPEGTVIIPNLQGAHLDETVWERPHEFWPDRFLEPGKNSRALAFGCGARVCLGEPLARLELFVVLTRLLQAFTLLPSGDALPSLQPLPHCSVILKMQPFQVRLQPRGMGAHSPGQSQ

[6] = target: T1, Steroid 17-alpha-hydroxylase/17,20 lyase; test: Inhibition of CYP17 in human H295R cells assessed as decrease in testosterone levels after 24 hrs by ELISA; assay type: cell-based

| SMILES | inhibition at 0.01 µM [1] | IC50 [2] | half-life at 1 µM [3] | half-life at 1 µM [4] | inhibition at 20 h [5] | IC50 [6] |
| --- | --- | --- | --- | --- | --- | --- |
| Cc1ccncc1C1=CC=C2[C@@H]3CC=C4C[C@@H](O)CC[C@]4(C)[C@H]3CC[C@]12C | – | – | – | 1 to 50 min | ≥ 50% | 15 to 100 nM |
| CC(=O)N[C@@H]1CC[C@@]2(C)C(=CC[C@@H]3[C@@H]2CC[C@]2(C)C(c4cccnc4)=CC[C@@H]32)C1 | – | ≤ 11 nM | – | 1 to 50 min | ≥ 50% | ≤ 15 nM |
| CN(C)CC(=O)O[C@H]1CC[C@@]2(C)C(=CC[C@H]3C4=CC=C(c5cccnc5)[C@@]4(C)CC[C@@H]32)C1 | – | – | – | – | ≥ 50% | 15 to 100 nM |
| C[C@]12CC[C@H]3[C@@H](CC4CC45C[C@@H](O)CC[C@]35C)[C@@H]1CC=C2c1cccnc1 (stereo not given in full) | – | ≤ 11 nM | – | 1 to 50 min | ≥ 50% | ≤ 15 nM |
| C[C@]12CC[C@H]3[C@@H](CCC45CC4C(O)CC[C@]35C)[C@@H]1CC=C2c1cccnc1 (stereo not given in full) | – | ≤ 11 nM | – | – | ≥ 50% | ≤ 15 nM |
| CC1C(O)CC[C@@]2(C)C1CC[C@@H]1[C@@H]2CC[C@]2(C)C(c3cccnc3)=CC[C@@H]12 (stereo not given in full) | – | ≤ 11 nM | – | – | 10 to 50% | ≤ 15 nM |
| C[C@]12CC[C@H]3[C@@H](CC=C4C[C@@H](O)CC[C@@]43C)C1=CC=C2c1cncc(C(F)F)c1 | – | – | – | – | < 10% | 15 to 100 nM |
| C[C@@]1(O)CC[C@@]2(C)C(CC[C@@H]3[C@@H]2CC[C@]2(C)C(c4cncc(F)c4)=CC[C@@H]32)C1 (stereo not given in full) | – | ≤ 11 nM | – | 1 to 50 min | – | ≤ 15 nM |
| C[C@]12CCC(F)CC1=CC[C@@H]1[C@@H]2CC[C@]2(C)C(c3cncc(F)c3)=CC[C@@H]12 (stereo not given in full) | – | ≤ 11 nM | – | ≥ 50 min | – | ≤ 15 nM |
| CC(=O)N[C@@H]1CC[C@@]2(C)C(=CC[C@H]3C4=CC=C(c5cccnc5)[C@@]4(C)CC[C@@H]32)C1 | – | – | – | 1 to 50 min | ≥ 50% | ≤ 15 nM |
| COc1cncc(C2=CC[C@H]3[C@@H]4CC[C@H]5CCOCC[C@]5(C)[C@H]4CC[C@]23C)c1 | 50 to 80% | ≤ 11 nM | 1 to 10 min | 1 to 10 min | – | – |
| C[C@]12CCC(=O)C=C1C1CC1[C@@H]1[C@@H]2CC[C@]2(C)C(c3cncc(F)c3)=CC[C@@H]12 (stereo not given in full) | – | ≤ 11 nM | – | 1 to 50 min | ≥ 50% | ≤ 15 nM |
| CC(C)C(=O)N[C@H]1CC[C@@]2(C)C(CC[C@@H]3[C@@H]2CC[C@]2(C)C(c4cccnc4)=CC[C@@H]32)C1 (stereo not given in full) | – | – | – | 1 to 50 min | ≥ 50% | ≤ 15 nM |
| C[C@]12CC[C@H]3[C@@H](CC(F)C4(O)C[C@@H](O)CC[C@]34C)[C@@H]1CC=C2c1cncc(F)c1 (stereo not given in full) | – | ≤ 11 nM | – | 1 to 50 min | ≥ 50% | ≤ 15 nM |
| C[C@]12CCC(=O)C=C1C=C[C@@H]1[C@@H]2CC[C@]2(C)C(c3cncc(F)c3)=CC[C@@H]12 | – | ≤ 11 nM | – | 1 to 50 min | ≥ 50% | ≤ 15 nM |
| C[C@]12CC[C@H](O)CC1=CC[C@@H]1[C@@H]2CC[C@]2(C)C(c3cncc(C(F)F)c3)=CC[C@@H]12 | – | ≤ 11 nM | – | ≥ 50 min | ≥ 50% | ≤ 15 nM |
| CC1=C2CC[C@@H]3[C@H](CC[C@]4(C)C(c5cccnc5)=CC[C@@H]34)[C@@]2(C)CCC1=O | – | ≤ 11 nM | – | – | ≥ 50% | ≤ 15 nM |

Further lines, with some results ahead:

| inhibition at 0.01 µM [1] | IC50 [2] | half-life at 1 µM [3] | half-life at 1 µM [4] | SMILES | inhibition at 20 h [5] | IC50 [6] |
| --- | --- | --- | --- | --- | --- | --- |
| ≥ 80% | ≤ 11 nM | 10 to 60 min | ≥ 50 min | C[C@]12CCNC(=O)C[C@@H]1CC[C@@H]1[C@@H]2CC[C@]2(C)C(n3ccnc3)=CC[C@@H]12 | – | – |
| 50 to 80% | ≤ 11 nM | 1 to 10 min | 1 to 10 min | Cc1cncc(C2=CC[C@H]3[C@@H]4CCN5C(=O)CCCC[C@]5(C)[C@H]4CC[C@]23C)c1 | – | – |
| 50 to 80% | ≤ 11 nM | 1 to 10 min | 1 to 10 min | CN1C(=O)COC[C@@]2(C)C1CC[C@@H]1[C@@H]2CC[C@]2(C)C(c3cccnc3)=CC[C@@H]12 (stereo not given in full) | – | – |
| ≥ 80% | ≤ 11 nM | 10 to 60 min | ≥ 50 min | C[C@]12CCNC(=O)C=C1CC[C@@H]1[C@@H]2CC[C@]2(C)C(n3ccnc3)CC[C@@H]12 (stereo not given in full) | – | – |
| 50 to 80% | ≤ 11 nM | 10 to 60 min | 10 to 60 min | Cc1cn(C2=CC[C@H]3[C@@H]4CCC5=CC(=O)NCC[C@]5(C)[C@H]4CC[C@]23C)cn1 | – | – |
| ≥ 80% | ≤ 11 nM | 1 to 10 min | 1 to 10 min | C[C@]12CCOCC[C@@H]1CC[C@@H]1[C@@H]2CC[C@]2(C)C(c3cccnc3)=CC[C@@H]12 | – | – |
| 50 to 80% | ≤ 11 nM | 1 to 10 min | 1 to 10 min | Cc1cncc(C2=CC[C@H]3[C@@H]4CC[C@H]5COCCC[C@]5(C)[C@H]4CC[C@]23C)c1 | – | – |
| – | ≤ 11 nM | – | 1 to 50 min | C[C@]12CCNC(=O)C=C1CC[C@@H]1[C@@H]2CC[C@]2(C)C(c3cncc(C(F)F)c3)=CC[C@@H]12 | ≥ 50% | ≤ 15 nM |
| – | ≤ 11 nM | – | ≥ 50 min | C[C@]12CC(O)CC1CC[C@@H]1[C@@H]2CC[C@]2(C)C(c3cncc(F)c3)=CC[C@@H]12 (stereo not given in full) | 10 to 50% | ≤ 15 nM |
| – | ≤ 11 nM | – | 1 to 50 min | C[C@]12CC(O)CC1CC[C@@H]1[C@@H]2CC[C@]2(C)C(c3cccnc3)=CC[C@@H]12 (stereo not given in full) | ≥ 50% | ≤ 15 nM |
| ≥ 80% | ≤ 11 nM | 1 to 10 min | 1 to 10 min | COc1cncc(C2=CC[C@H]3[C@@H]4CCN5C(=O)CCCC[C@]5(C)[C@H]4CC[C@]23C)c1 | – | – |
| ≥ 80% | ≤ 11 nM | 1 to 10 min | 1 to 10 min | CCc1cncc(C2=CC[C@H]3[C@@H]4CCN5C(=O)CCCC[C@]5(C)[C@H]4CC[C@]23C)c1 | – | – |
| 50 to 80% | ≤ 11 nM | 1 to 10 min | 1 to 10 min | CCOc1cncc(C2=CC[C@H]3[C@@H]4CC[C@H]5COCCC[C@]5(C)[C@H]4CC[C@]23C)c1 | – | – |
| – | ≤ 11 nM | – | 1 to 50 min | C[C@]12CCNC(=O)C=C1C1CC1[C@@H]1[C@@H]2CC[C@]2(C)C(c3cncc(F)c3)=CC[C@@H]12 (stereo not given in full) | ≥ 50% | ≤ 15 nM |
| 50 to 80% | ≤ 11 nM | 1 to 10 min | 1 to 10 min | COc1cncc(C2=CC[C@H]3[C@@H]4CC[C@H]5COCCC[C@]5(C)[C@H]4CC[C@]23C)c1 | – | – |
| ≥ 80% | ≤ 11 nM | 1 to 10 min | 1 to 10 min | C[C@]12CCCOCC1CCC1C2CC[C@]2(C)C(c3cccnc3)=CC[C@@H]12 (single isomer, unassigned) | – | – |
